Marks after values point to notes of the source that are not given here.
How the values were obtained:
Candida albicans [1] = test: Minimum Inhibitory Concentration, broth dilution (NCCLS M27-A); type: cell-based
Procedure: Of course, compounds having MICs on the low end of these ranges, or even lower, are preferred. […] Toxicity is less of a concern for typical administration, as is water solubility.
(§1) For each compound Minimum Inhibitory Concentrations (MIC) were determined as described in Reference Method for Broth Dilution Antifungal Susceptibility Testing of Yeasts; Approved Standard; NCCLS document M27-A (ISBN 1-56238-328-0); NCCLS, 940 West Valley Road, Suite 1400, Wayne, Pa. 19087, 1997. […] Ten microliter samples were removed from the corresponding wells and deposited onto blood agar plates. Plates were incubated at 35° C. for 48 hours. The highest compound dilution at which no colonies are apparent on the plate was considered the MFC. Maximum non-lethal dose (NLD) data were also obtained for each product by initially intravenously administering a single 16 mg/kg dose to each of 4 mice in several groups. After review of findings, higher or lower doses were administered and a maximum non-lethal dose was determined. Ed50 data were also obtained for each compound. Efficacy was evaluated in mice injected with C. albicans. Therapeutic efficacy was defined as a 2 log reduction in kidney cfu relative to mean vehicle control.

Candida albicans [2] = test: Minimum Fungicidal Concentration, plating from MIC wells on blood agar; type: cell-based; details: blood agar plates, 35° C., 48 hours
Procedure: as §1

rats = details: compared with amphotericin B; cited from earlier work
dogs = details: compared with amphotericin B; cited from earlier work
[3] = tested on: patients with systemic fungal infections; details: human, in vivo; cited from earlier work
C. albicans = test: Efficacy in mice injected with C. albicans (kidney cfu reduction); type: in vivo, Candida albicans; details: for ED50: Candida albicans, mice injected with C. albicans, efficacy = 2 log reduction in kidney cfu relative to mean vehicle control, read-out: ED50 Kidney CFU Red.; for level of Candida albicans in the kidneys of mice (FIG. 1): treated mice, compared with AME
Procedure: as §1

mice [4] = details: cited from earlier work
mice [5] = test: Maximum non-lethal dose, single intravenous dose in mice; type: in vivo
Procedure: as §1

SMILES | Micro. Data (DLM/CJ) MIC (Candida albicans [1]) | Micro. Data (DLM/CJ) MFC (Candida albicans [2]) | acute, nephro and hepto toxicity (rats) | acute, nephro and hepto toxicity (dogs) | neurological toxicity in clinical trial [3] | ED50 (C. albicans) [mg/kg] | NLD (maximum non-lethal dose), literature value (mice [4]) | Water Sol. (Water solubility) | NLD (maximum non-lethal dose) (mice [5]) [mg/kg] | level of Candida albicans in the kidneys of mice (FIG. 1) (C. albicans)
COC(=O)[C@H]1[C@@H]2C[C@@H](O[C@@H]3O[C@H](C)[C@@H](O)[C@H](N)[C@@H]3O)/C=C/C=C/C=C/C=C/C=C/C=C/C=C/[C@H](C)[C@@H](O)[C@@H](C)[C@H](C)OC(=O)C[C@H](O)C[C@H](O)CC[C@@H](O)[C@H](O)C[C@H](O)C[C@](O)(C[C@@H]1O)O2 [AME, amphotericin B methyl ester] | 1 | 2 | lower acute, nephro and hepto toxicity than amphotericin B | lower acute, nephro and hepto toxicity than amphotericin B | many patients developed progressive neurological dysfunction associated with white matter degeneration | – | – | – | – | –
C[C@@H]1[C@H](O)[C@@H](C)/C=C/C=C/C=C/C=C/C=C/C=C/C=C/[C@H](O[C@@H]2O[C@H](C)[C@@H](O)[C@H](N)[C@@H]2O)C[C@@H]2O[C@](O)(C[C@@H](O)C[C@@H](O)[C@H](O)CC[C@@H](O)C[C@@H](O)CC(=O)O[C@H]1C)C[C@H](O)[C@H]2C(=O)O [AmB, amphotericin B, reference compound] | 0.5 | 2 | – | – | – | 3.58 | 2-4* mg/kg | negligible | – | –
COC(=O)C1C2C[C@@H](OC3O[C@H](C)[C@@H](O)[C@H](NC[C@@]4(O)OC[C@@H](O)[C@H](O)[C@@H]4O)[C@@H]3O)/C=C/C=C/C=C/C=C/C=C/C=C/C=C/[C@H](C)[C@@H](O)[C@@H](C)[C@H](C)OC(=O)C[C@H](O)C[C@H](O)CC[C@@H](O)[C@H](O)C[C@H](O)C[C@](O)(C[C@@H]1O)O2 (stereo partly shown) [Compound C1, N-tagatopyranose-amphotericin B methyl ester] | 2 | 2 | – | – | – | < 3 | – | >16 mg/mL | >64 | significantly lower
COC(=O)C1C2C[C@@H](OC3O[C@H](C)[C@@H](O)[C@H](NC[C@@]4(O)OC[C@@H](O)[C@@H](OC5O[C@H](CO)[C@H](O)[C@H](O)[C@H]5O)[C@@H]4O)[C@@H]3O)/C=C/C=C/C=C/C=C/C=C/C=C/C=C/[C@H](C)[C@@H](O)[C@@H](C)[C@H](C)OC(=O)C[C@H](O)C[C@H](O)CC[C@@H](O)[C@H](O)C[C@H](O)C[C@](O)(C[C@@H]1O)O2 (stereo partly shown) [Compound C2] | 2 | 2 | – | – | – | < 3 | – | >16 mg/mL | >64 | significantly lower
